From ChEMBL document CHEMBL1138148, “Conformational constraint in oxazolidinone antibacterials. Part 2: Synthesis and structure-activity studies of oxa-, aza-, and thiabicyclo[3.1.0]hexylphenyl oxazolidinones” (2006) come the findings set out here.

What all share (type): functional
One assay relates to Streptococcus pneumoniae. Put plainly: Antibacterial activity against Streptococcus pneumoniae SVI SP-3.
For another assay, the system named is Moraxella catarrhalis. Put plainly: Antibacterial activity against Moraxella catarrhalis BC-3531.
In the next assay the test system is Staphylococcus aureus. Kind of assay: Antibacterial activity against Staphylococcus aureus UC-76 SA-1.
The subject of another assay is Enterococcus faecalis. Kind of assay: Antibacterial activity against Enterococcus faecalis MGH-2 EF1-1.
Another assay concerns Haemophilus influenzae. Put plainly: Antibacterial activity against Haemophilus influenzae HI3542. To be noted: HI-3542.

Converted amounts (≈) assume the structure as drawn.

Regarding `CC(=O)NC[C@H]1CN(c2ccc([C@H]3[C@@H]4CN(C=O)C[C@@H]43)c(F)c2)C(=O)O1`, the MIC against Streptococcus pneumoniae is 1 µg/mL (≈ 2.77 µM); against Moraxella catarrhalis, 8 µg/mL (≈ 22.1 µM); with Staphylococcus aureus, 2 µg/mL (≈ 5.53 µM); against Enterococcus faecalis, 2 µg/mL (≈ 5.53 µM); against Haemophilus influenzae, 8 µg/mL (≈ 22.1 µM).
Turning to `N#CCC(=O)NC[C@H]1CN(c2cc(F)c([C@H]3[C@@H]4CS(=O)(=O)C[C@@H]43)c(F)c2)C(=O)O1`, the MIC against Streptococcus pneumoniae amounted to 2 µg/mL (≈ 4.7 µM); with Moraxella catarrhalis, 8 µg/mL (≈ 18.8 µM); against Staphylococcus aureus, 4 µg/mL (≈ 9.4 µM); with Enterococcus faecalis, 4 µg/mL (≈ 9.4 µM); against Haemophilus influenzae it was 4 µg/mL (≈ 9.4 µM).
With `O=C(CO)NC[C@H]1CN(c2cc(F)c([C@H]3[C@@H]4CS(=O)(=O)C[C@@H]43)c(F)c2)C(=O)O1`, the MIC against Streptococcus pneumoniae was 2 µg/mL (≈ 4.8 µM); against Moraxella catarrhalis it was 8 µg/mL (≈ 19.2 µM); in the assay on Staphylococcus aureus, 4 µg/mL (≈ 9.61 µM); in the assay on Enterococcus faecalis, 4 µg/mL (≈ 9.61 µM); against Haemophilus influenzae, 8 µg/mL (≈ 19.2 µM).
For the molecule `CC(=O)NC[C@H]1CN(c2ccc([C@H]3[C@@H]4CN(C#N)C[C@@H]43)c(F)c2)C(=O)O1`, the MIC was found to be 1 µg/mL (≈ 2.79 µM) in the assay on Streptococcus pneumoniae; 4 µg/mL (≈ 11.2 µM) against Moraxella catarrhalis; 2 µg/mL (≈ 5.58 µM) against Staphylococcus aureus; 1 µg/mL (≈ 2.79 µM) against Enterococcus faecalis; 8 µg/mL (≈ 22.3 µM) against Haemophilus influenzae.
As to `CC(=O)NC[C@H]1CN(c2ccc([C@H]3[C@@H]4CN(c5nn[nH]n5)C[C@@H]43)c(F)c2)C(=O)O1`, the MIC with Streptococcus pneumoniae came to 64 µg/mL (≈ 159 µM); against Moraxella catarrhalis, 64 µg/mL (≈ 159 µM); in the assay on Staphylococcus aureus it was 64 µg/mL (≈ 159 µM); with Enterococcus faecalis it was 32 µg/mL (≈ 79.7 µM); in the assay with Haemophilus influenzae, 64 µg/mL (≈ 159 µM).
As for `CC(=O)NC[C@H]1CN(c2ccc([C@H]3[C@@H]4CN(C(=O)CN)C[C@@H]43)c(F)c2)C(=O)O1`, the MIC turned out to be 1 µg/mL (≈ 2.56 µM) with Streptococcus pneumoniae; 16 µg/mL (≈ 41 µM) in the assay on Moraxella catarrhalis; 16 µg/mL (≈ 41 µM) in the assay on Staphylococcus aureus; 4 µg/mL (≈ 10.2 µM) in the assay on Enterococcus faecalis; 16 µg/mL (≈ 41 µM) in the assay with Haemophilus influenzae.
Consider `CC(=O)NC[C@H]1CN(c2ccc([C@H]3[C@@H]4CN(C(=O)CC#N)C[C@@H]43)c(F)c2)C(=O)O1`, for which the MIC against Streptococcus pneumoniae was 1 µg/mL (≈ 2.5 µM); in the assay with Moraxella catarrhalis it was 4 µg/mL (≈ 9.99 µM); in the assay with Staphylococcus aureus, 1 µg/mL (≈ 2.5 µM); in the assay with Enterococcus faecalis, 1 µg/mL (≈ 2.5 µM); with Haemophilus influenzae, 8 µg/mL (≈ 20 µM).
In the case of `CC(=O)NC[C@H]1CN(c2ccc([C@H]3[C@@H]4CN(C(=N)N)C[C@@H]43)c(F)c2)C(=O)O1`, the MIC against Streptococcus pneumoniae stood at 4 µg/mL (≈ 10.7 µM); in the assay with Moraxella catarrhalis, 16 µg/mL (≈ 42.6 µM); with Staphylococcus aureus it was 64 µg/mL (≈ 170 µM); against Enterococcus faecalis it was 64 µg/mL (≈ 170 µM); against Haemophilus influenzae, 64 µg/mL (≈ 170 µM).
For the molecule `O=C(NC[C@H]1CN(c2ccc([C@H]3[C@@H]4CS(=O)(=O)C[C@@H]43)c(F)c2)C(=O)O1)C1CC1`, the MIC in the assay on Streptococcus pneumoniae is 2 µg/mL (≈ 4.9 µM); with Moraxella catarrhalis, 4 µg/mL (≈ 9.79 µM); with Staphylococcus aureus it was 4 µg/mL (≈ 9.79 µM); against Enterococcus faecalis, 4 µg/mL (≈ 9.79 µM); against Haemophilus influenzae, 4 µg/mL (≈ 9.79 µM).
Consider `CC(=O)NC[C@H]1CN(c2ccc([C@H]3[C@@H]4CN(C(=O)C(C)(C)O)C[C@@H]43)c(F)c2)C(=O)O1`, for which the MIC was determined as 2 µg/mL (≈ 4.77 µM) with Streptococcus pneumoniae; 16 µg/mL (≈ 38.1 µM) in the assay with Moraxella catarrhalis; 8 µg/mL (≈ 19.1 µM) with Staphylococcus aureus; 4 µg/mL (≈ 9.54 µM) against Enterococcus faecalis; 32 µg/mL (≈ 76.3 µM) against Haemophilus influenzae.
In the same order, the values of `COC(=O)N1C[C@@H]2[C@H](C1)[C@H]2c1ccc(N2C[C@H](CNC(C)=O)OC2=O)cc1F` are 2 µg/mL (≈ 5.11 µM), 8 µg/mL (≈ 20.4 µM), 4 µg/mL (≈ 10.2 µM), 4 µg/mL (≈ 10.2 µM) and 32 µg/mL (≈ 81.8 µM).
In the same order, the values of `CC(=O)NC[C@H]1CN(c2ccc([C@H]3[C@@H]4CN(CCO)C[C@@H]43)c(F)c2)C(=O)O1` are 0.5 µg/mL (≈ 1.32 µM), 8 µg/mL (≈ 21.2 µM), 4 µg/mL (≈ 10.6 µM), 8 µg/mL (≈ 21.2 µM) and 8 µg/mL (≈ 21.2 µM).
The like results for `C/N=C(\NC#N)N1C[C@@H]2[C@H](C1)[C@H]2c1ccc(N2C[C@H](CNC(C)=O)OC2=O)cc1F` were, in that order, 2 µg/mL (≈ 4.83 µM), 32 µg/mL (≈ 77.2 µM), 4 µg/mL (≈ 9.65 µM), 4 µg/mL (≈ 9.65 µM) and 16 µg/mL (≈ 38.6 µM).
In the case of `CC(=O)NC[C@H]1CN(c2ccc([C@H]3[C@@H]4CN(C(=N)NC#N)C[C@@H]43)c(F)c2)C(=O)O1`, the MIC against Streptococcus pneumoniae turned out to be 1 µg/mL (≈ 2.5 µM); in the assay on Moraxella catarrhalis it was 8 µg/mL (≈ 20 µM); in the assay with Staphylococcus aureus, 1 µg/mL (≈ 2.5 µM); in the assay with Enterococcus faecalis it was 2 µg/mL (≈ 4.99 µM); against Haemophilus influenzae, 8 µg/mL (≈ 20 µM).
For `CC(F)(F)C(=O)NC[C@H]1CN(c2cc(F)c([C@H]3[C@@H]4CS(=O)(=O)C[C@@H]43)c(F)c2)C(=O)O1`, the MIC was determined as 1 µg/mL (≈ 2.22 µM) against Streptococcus pneumoniae; 8 µg/mL (≈ 17.8 µM) in the assay with Moraxella catarrhalis; 4 µg/mL (≈ 8.88 µM) with Staphylococcus aureus; 2 µg/mL (≈ 4.44 µM) in the assay with Enterococcus faecalis; 16 µg/mL (≈ 35.5 µM) against Haemophilus influenzae.
In the same order, the values of `O=C(NC[C@H]1CN(c2cc(F)c([C@H]3[C@@H]4CS(=O)(=O)C[C@@H]43)c(F)c2)C(=O)O1)C1CC1` are 1 µg/mL (≈ 2.34 µM), 4 µg/mL (≈ 9.38 µM), 2 µg/mL (≈ 4.69 µM), 2 µg/mL (≈ 4.69 µM) and 8 µg/mL (≈ 18.8 µM).
In the same order, the values of `O=C(NC[C@H]1CN(c2ccc([C@H]3[C@@H]4CS(=O)(=O)C[C@@H]43)c(F)c2)C(=O)O1)C1CCC1` are 2 µg/mL (≈ 4.73 µM), 32 µg/mL (≈ 75.7 µM), 8 µg/mL (≈ 18.9 µM), 8 µg/mL (≈ 18.9 µM) and 32 µg/mL (≈ 75.7 µM).
As to `CC(=O)NC[C@H]1CN(c2ccc([C@H]3[C@@H]4CN(CCC#N)C[C@@H]43)c(F)c2)C(=O)O1`, the MIC with Streptococcus pneumoniae came out at 1 µg/mL (≈ 2.59 µM); against Moraxella catarrhalis, 8 µg/mL (≈ 20.7 µM); in the assay with Staphylococcus aureus, 2 µg/mL (≈ 5.18 µM); against Enterococcus faecalis, 2 µg/mL (≈ 5.18 µM); in the assay with Haemophilus influenzae, 16 µg/mL (≈ 41.4 µM).
As for `CC(=O)NC[C@H]1CN(c2ccc([C@H]3[C@@H]4CNC[C@@H]43)c(F)c2)C(=O)O1`, the MIC was 2 µg/mL (≈ 6 µM) in the assay on Streptococcus pneumoniae; 8 µg/mL (≈ 24 µM) in the assay with Moraxella catarrhalis; 8 µg/mL (≈ 24 µM) against Staphylococcus aureus; 16 µg/mL (≈ 48 µM) in the assay with Enterococcus faecalis; 32 µg/mL (≈ 96 µM) with Haemophilus influenzae.
Regarding `CC(=O)NC[C@H]1CN(c2ccc([C@H]3[C@@H]4CN(C(=O)C(F)F)C[C@@H]43)c(F)c2)C(=O)O1`, the MIC in the assay with Streptococcus pneumoniae was 1 µg/mL (≈ 2.43 µM); in the assay on Moraxella catarrhalis, 8 µg/mL (≈ 19.4 µM); with Staphylococcus aureus, 4 µg/mL (≈ 9.72 µM); with Enterococcus faecalis, 2 µg/mL (≈ 4.86 µM); against Haemophilus influenzae it was 16 µg/mL (≈ 38.9 µM).
In the same order, the values of `CCC(=O)NC[C@H]1CN(c2cc(F)c([C@H]3[C@@H]4CS(=O)(=O)C[C@@H]43)c(F)c2)C(=O)O1` are 1 µg/mL (≈ 2.41 µM), 4 µg/mL (≈ 9.65 µM), 2 µg/mL (≈ 4.83 µM), 2 µg/mL (≈ 4.83 µM) and 4 µg/mL (≈ 9.65 µM).
In the same order, the values of `CC(=O)NC[C@H]1CN(c2ccc([C@H]3[C@@H]4CN(CCF)C[C@@H]43)c(F)c2)C(=O)O1` are 1 µg/mL (≈ 2.64 µM), 8 µg/mL (≈ 21.1 µM), 4 µg/mL (≈ 10.5 µM), 4 µg/mL (≈ 10.5 µM) and 16 µg/mL (≈ 42.2 µM).
On to `CC(=O)NC[C@H]1CN(c2ccc([C@H]3[C@@H]4CN(c5nnn(C)n5)C[C@@H]43)c(F)c2)C(=O)O1`, for which the MIC against Streptococcus pneumoniae worked out at 1 µg/mL (≈ 2.41 µM); with Moraxella catarrhalis it was 8 µg/mL (≈ 19.3 µM); in the assay with Staphylococcus aureus, 2 µg/mL (≈ 4.81 µM); against Enterococcus faecalis, 2 µg/mL (≈ 4.81 µM); in the assay on Haemophilus influenzae, 16 µg/mL (≈ 38.5 µM).
For the molecule `CC(=O)NCC(=O)N1C[C@@H]2[C@H](C1)[C@H]2c1ccc(N2C[C@H](CNC(C)=O)OC2=O)cc1F`, the MIC against Streptococcus pneumoniae amounted to 4 µg/mL (≈ 9.25 µM); in the assay with Moraxella catarrhalis, 32 µg/mL (≈ 74 µM); against Staphylococcus aureus, 4 µg/mL (≈ 9.25 µM); against Enterococcus faecalis, 4 µg/mL (≈ 9.25 µM); in the assay with Haemophilus influenzae, 32 µg/mL (≈ 74 µM).
In the case of `CC(=O)NC[C@H]1CN(c2ccc(N3CCOCC3)c(F)c2)C(=O)O1` [LINEZOLID], the MIC amounted to 8 µg/mL (≈ 23.7 µM) in the assay with Moraxella catarrhalis and 16 µg/mL (≈ 47.4 µM) in the assay on Haemophilus influenzae.
